Data: patent US10717733B2, “Haloallylamine indole and azaindole derivative inhibitors of lysyl oxidases and uses thereof” (PHARMAXIS LTD., priority 2016, dated 2020)
Structures can show the parent of a compound that is named as a salt.

Legend:
Format in all cases: biochemical
[1] = biological target: human recombinant SSAO/VAP-1 (Homo sapiens (Human), UniProt Q16853); assay: Inhibition of human recombinant SSAO/VAP-1 amine oxidase activity; conditions: 30 min preincubation at 37° C., 600 μM benzylamine
Method in brief: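 Purified SSAO/VAP-1 (residues 34-763, expressed in CHO Lec 8 cells; 0.25 μg/mL) preincubated 30 min at 37° C with compound in 0.1 M sodium phosphate pH 7.4. Reaction mix of 600 μM benzylamine, 120 μM Amplex Red and 1.5 U/mL HRP added; fluorescence (ex 565/em 590 nm) read every 2.5 min for 30 min; IC50 from kinetic slopes over 4-11 point curves.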

[2] = biological target: Bovine LOX (Bos taurus (Bovine), UniProt P33072); assay: LOX inhibition, peroxidase-coupled Amplex Red amine oxidase assay; conditions: 30 min preincubation at 37° C., putrescine substrate
Method in brief: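 Bovine LOX in 1.2 M urea, 50 mM sodium borate pH 8.2 with 1 μM mofegiline and 0.5 mM pargyline; putrescine at twice KM (e.g. 20 mM for LOX) with Amplex Red/HRP. Fluorescence (ex 565/em 590 nm) read kinetically over 30 min at 37–45 °C; IC50 from slopes.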

[3] = biological target: Human LOXL2 (Homo sapiens (Human), UniProt Q9Y4K0); assay: LOXL2 inhibition, peroxidase-coupled Amplex Red amine oxidase assay; conditions: 30 min preincubation at 37° C., putrescine substrate
Method in brief: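 Enzyme in 1.2 M urea, 50 mM sodium borate pH 8.2 with 1 μM mofegiline and 0.5 mM pargyline, preincubated 30 min at 37° C with compound (11-point CRC). Putrescine at twice KM (10 mM for LOXL2) with Amplex Red/HRP; fluorescence (ex 565, em 590) read kinetically 30 min; IC50 from slopes.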

[4] = biological target: Recombinant human MAO-B (Homo sapiens (Human), UniProt P27338); assay: Inhibition of human recombinant MAO-B; conditions: benzylamine 100 μM
Method in brief: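 Recombinant human MAO-B used as enzyme source (0.06 mg/mL, stated concentration). Run as for the human SSAO/VAP-1 assay, except benzylamine substrate at 100 μM.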

human recombinant SSAO/VAP-1, sequence (Q16853 34-763): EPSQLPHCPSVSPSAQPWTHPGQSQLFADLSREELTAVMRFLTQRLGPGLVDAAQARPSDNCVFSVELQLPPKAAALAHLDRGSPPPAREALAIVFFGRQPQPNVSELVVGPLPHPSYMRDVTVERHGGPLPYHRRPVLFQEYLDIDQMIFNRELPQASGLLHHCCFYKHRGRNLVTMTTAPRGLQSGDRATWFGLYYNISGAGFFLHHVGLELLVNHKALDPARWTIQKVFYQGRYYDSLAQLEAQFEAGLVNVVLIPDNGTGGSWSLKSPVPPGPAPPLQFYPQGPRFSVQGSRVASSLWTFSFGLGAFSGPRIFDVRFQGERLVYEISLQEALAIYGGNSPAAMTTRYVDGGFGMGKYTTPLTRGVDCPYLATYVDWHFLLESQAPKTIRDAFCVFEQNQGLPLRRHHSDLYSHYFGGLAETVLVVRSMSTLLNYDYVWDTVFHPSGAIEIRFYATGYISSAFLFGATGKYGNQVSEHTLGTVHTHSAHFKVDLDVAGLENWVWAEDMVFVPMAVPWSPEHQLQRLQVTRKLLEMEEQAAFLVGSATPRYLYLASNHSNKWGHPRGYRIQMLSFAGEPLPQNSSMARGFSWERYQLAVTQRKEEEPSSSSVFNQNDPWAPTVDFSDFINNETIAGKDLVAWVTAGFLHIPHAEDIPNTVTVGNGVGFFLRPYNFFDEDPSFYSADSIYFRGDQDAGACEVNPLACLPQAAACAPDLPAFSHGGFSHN
Human LOXL2, sequence (Q9Y4K0 26-774): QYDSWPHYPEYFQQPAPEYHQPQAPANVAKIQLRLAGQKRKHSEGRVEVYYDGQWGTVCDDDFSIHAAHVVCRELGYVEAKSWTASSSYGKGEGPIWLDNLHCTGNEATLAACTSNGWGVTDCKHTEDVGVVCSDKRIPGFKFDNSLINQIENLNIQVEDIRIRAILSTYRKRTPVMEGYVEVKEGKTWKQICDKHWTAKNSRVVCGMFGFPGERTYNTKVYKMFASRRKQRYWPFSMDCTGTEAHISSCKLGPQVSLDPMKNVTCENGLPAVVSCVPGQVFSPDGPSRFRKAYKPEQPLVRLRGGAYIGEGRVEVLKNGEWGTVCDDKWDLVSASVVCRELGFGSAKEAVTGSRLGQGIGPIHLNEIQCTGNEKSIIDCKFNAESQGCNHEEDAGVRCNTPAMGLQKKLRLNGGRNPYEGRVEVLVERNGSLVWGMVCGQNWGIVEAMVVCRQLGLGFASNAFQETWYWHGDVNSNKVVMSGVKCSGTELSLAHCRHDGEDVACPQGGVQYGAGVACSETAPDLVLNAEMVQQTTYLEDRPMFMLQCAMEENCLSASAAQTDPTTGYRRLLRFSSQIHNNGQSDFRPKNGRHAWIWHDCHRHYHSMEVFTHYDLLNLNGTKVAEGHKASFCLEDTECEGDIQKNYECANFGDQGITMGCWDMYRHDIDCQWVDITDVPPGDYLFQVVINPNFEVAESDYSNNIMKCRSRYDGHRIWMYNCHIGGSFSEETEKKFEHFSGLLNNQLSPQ
Bovine LOX, sequence (P33072 170-418): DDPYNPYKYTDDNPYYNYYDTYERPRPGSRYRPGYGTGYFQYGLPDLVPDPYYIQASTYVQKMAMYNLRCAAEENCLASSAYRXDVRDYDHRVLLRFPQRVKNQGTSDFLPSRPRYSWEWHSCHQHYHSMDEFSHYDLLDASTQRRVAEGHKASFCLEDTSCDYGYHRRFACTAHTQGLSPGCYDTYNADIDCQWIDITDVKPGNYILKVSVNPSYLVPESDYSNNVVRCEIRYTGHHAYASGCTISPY
Recombinant human MAO-B, sequence (P27338 whole entry): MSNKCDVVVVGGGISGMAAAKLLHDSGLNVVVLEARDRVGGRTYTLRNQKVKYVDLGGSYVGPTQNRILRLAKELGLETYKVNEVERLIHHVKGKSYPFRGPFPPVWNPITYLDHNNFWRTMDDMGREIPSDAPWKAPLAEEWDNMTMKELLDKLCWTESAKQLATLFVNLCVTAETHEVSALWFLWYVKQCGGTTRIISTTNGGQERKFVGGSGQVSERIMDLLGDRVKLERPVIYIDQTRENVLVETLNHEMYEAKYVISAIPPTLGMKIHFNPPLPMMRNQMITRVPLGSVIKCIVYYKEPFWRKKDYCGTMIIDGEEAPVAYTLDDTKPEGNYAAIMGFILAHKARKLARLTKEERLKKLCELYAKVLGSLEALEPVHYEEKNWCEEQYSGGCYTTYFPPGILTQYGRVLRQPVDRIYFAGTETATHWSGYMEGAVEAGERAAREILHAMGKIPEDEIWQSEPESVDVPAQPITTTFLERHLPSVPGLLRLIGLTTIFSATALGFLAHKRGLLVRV

| SMILES | IC50 [1] [nM] | IC50 [2] [nM] | IC50 [3] [nM] | IC50 [4] [nM] |
| --- | --- | --- | --- | --- |
| CN(C)S(=O)(=O)c1cccc(-c2c(Cl)n(C/C(F)=C/CN)c3ccc(S(C)(=O)=O)cc23)c1 [Compound 100, (Z)-3-(1-(4-amino-2-fluorobut-2-en-1-yl)-2-chloro-5-(methylsulfonyl)-1H-indol-3-yl)-N,N-dimethylbenzenesulfonamide] | > 3000 | > 300 | < 300 | > 3000 |
| Cc1c(-c2ccc(S(=O)(=O)N(C)C)cc2)c2ccccc2n1C/C(F)=C/CN [Compound 3, (Z)-4-(1-(4-amino-2-fluorobut-2-en-1-yl)-2-methyl-1H-indol-3-yl)-N,N-dimethylbenzenesulfonamide] | > 3000 | > 300 | < 300 | > 3000 |
| Cc1ccc2c(n1)c(-c1cccc(S(=O)(=O)N(C)C)c1)c(C)n2C/C(F)=C/CN [Compound 107, (Z)-3-(1-(4-amino-2-fluorobut-2-en-1-yl)-2,5-dimethyl-1H-pyrrolo[3,2-b]pyridin-3-yl)-N,N-dimethylbenzenesulfonamide Dihydrochloride] | > 3000 | > 300 | < 300 | > 3000 |
| Cc1c(-c2cncc(S(=O)(=O)N(C)C)c2)c2c(Cl)cccc2n1C/C(F)=C/CN [Compound 75, (Z)-5-(1-(4-amino-2-fluorobut-2-en-1-yl)-4-chloro-2-methyl-1H-indol-3-yl)-N,N-dimethylpyridine-3-sulfonamide] | > 3000 | > 300 | < 300 | > 3000 |
| CNS(=O)(=O)c1cncc(-c2c(C)n(C/C(F)=C/CN)c3ccc(Cl)cc23)c1 [Compound 70, (Z)-5-(1-(4-amino-2-fluorobut-2-en-1-yl)-5-chloro-2-methyl-1H-indol-3-yl)-N-methylpyridine-3-sulfonamide] | > 3000 | > 300 | < 300 | > 3000 |
| Cc1c(-c2cccc(S(=O)(=O)N(C)C)c2)c2nc(C(=O)N(C)C)ccc2n1C/C(F)=C/CN [Compound 44, (Z)-1-(4-amino-2-fluorobut-2-en-1-yl)-3-(3-(N,N-dimethylsulfamoyl)phenyl)-N,N,2-trimethyl-1H-pyrrolo[3,2-b]pyridine-5-carboxamide] | > 3000 | > 300 | < 300 | > 3000 |
| CN(C)S(=O)(=O)c1cncc(-c2cn(C/C(F)=C/CN)c3ccc(Cl)cc23)c1 [Compound 66, (Z)-5-(1-(4-amino-2-fluorobut-2-en-1-yl)-5-chloro-1H-indol-3-yl)-N,N-dimethylpyridine-3-sulfonamide] | > 3000 | > 300 | < 300 | > 3000 |
| CCOC(=O)c1cc2c(-c3cccc(S(=O)(=O)N(C)C)c3)c(C)n(C/C(F)=C/CN)c2cc1F [Compound 22, (Z)-ethyl 1-(4-amino-2-fluorobut-2-en-1-yl)-3-(3-(N,N-dimethylsulfamoyl)phenyl)-6-fluoro-2-methyl-1H-indole-5-carboxylate] | > 3000 | > 300 | < 300 | > 3000 |
| Cc1c(-c2cccc(S(=O)(=O)N(C)C)c2)c2nc(F)ccc2n1C/C(F)=C/CN [Compound 109, (Z)-3-(1-(4-amino-2-fluorobut-2-en-1-yl)-5-fluoro-2-methyl-1H-pyrrolo[3,2-b]pyridin-3-yl)-N,N-dimethylbenzenesulfonamide] | > 3000 | > 300 | < 300 | > 3000 |
| Cc1c(-c2cccc(S(=O)(=O)N(C)C)c2)c2ccncc2n1C/C(F)=C/CN [Compound 32, (Z)-3-(1-(4-amino-2-fluorobut-2-en-1-yl)-2-methyl-1H-pyrrolo[2,3-c]pyridin-3-yl)-N,N-dimethylbenzenesulfonamide Dihydrochloride] | > 3000 | > 300 | < 300 | > 3000 |
| Cc1c(-c2cccc(S(=O)(=O)N(C)C)c2)c2cc(S(=O)(=O)C(C)C)ccc2n1C/C(F)=C/CN [Compound 106, (Z)-3-(1-(4-amino-2-fluorobut-2-en-1-yl)-5-(isopropylsulfonyl)-2-methyl-1H-indol-3-yl)-N,N-dimethyl-benzenesulfonamide Hydrochloride] | > 3000 | > 300 | < 300 | > 3000 |
| Cc1c(-c2cccc(S(=O)(=O)N(C)C)c2)c2cc(C(=O)N(C)C)ccc2n1C/C(F)=C/CN [Compound 6, (Z)-1-(4-amino-2-fluorobut-2-en-1-yl)-3-(3-(N,N-dimethylsulfamoyl)phenyl)-N,N,2-trimethyl-1H-indole-5-carboxamide] | > 3000 | > 300 | < 300 | > 3000 |
| Cc1cc(-c2c(C)n(C/C(F)=C/CN)c3ccc([N+](=O)[O-])cc23)cc(C)n1 [Compound 101, (Z)-4-(3-(2,6-dimethylpyridin-4-yl)-2-methyl-5-nitro-1H-indol-1-yl)-3-fluorobut-2-en-1-amine] | > 3000 | > 300 | < 300 | > 3000 |
| Cc1c(-c2cccc(S(=O)(=O)N(C)C)c2)c2cc(C(=O)O)ccc2n1C/C(F)=C/CN [Compound 8, (Z)-1-(4-amino-2-fluorobut-2-en-1-yl)-3-(3-(N,N-dimethylsulfamoyl)phenyl)-2-methyl-1H-indole-5-carboxylic acid] | > 3000 | > 300 | < 300 | > 3000 |
| Cc1c(-c2cccc(C(C)(C)C)c2)c2cc(C(=O)O)ccc2n1C/C(F)=C/CN [Compound 31, (Z)-1-(4-amino-2-fluorobut-2-en-l-yl)-3-(3-(tert-butyl)phenyl)-2-methyl-1H-indole-5-carboxylic acid, Hydrochloride] | > 3000 | > 300 | < 300 | > 3000 |
| Cc1c(-c2cccc(S(=O)(=O)N(C)C)c2)c2nc(O)ccc2n1C/C(F)=C/CN [Compound 60, (Z)-3-(1-(4-amino-2-fluorobut-2-en-1-yl)-5-hydroxy-2-methyl-1H-pyrrolo[3,2-b]pyridin-3-yl)-N,N-dimethylbenzenesulfonamide Hydrochloride] | > 3000 | > 300 | < 300 | > 3000 |
| CCOC(=O)c1cccc(-c2c(C)n(C/C(F)=C/CN)c3ccc(S(=O)(=O)N(C)C)cc23)c1 [Compound 33, ethyl (Z)-3-(1-(4-amino-2-fluorobut-2-en-1-yl)-5-(N,N-dimethylsulfamoyl)-2-methyl-1H-indol-3-yl)benzoate] | > 3000 | > 300 | < 300 | > 3000 |
| CNC(=O)c1ccc2c(n1)c(-c1cccc(S(=O)(=O)N(C)C)c1)c(C)n2C/C(F)=C/CN [Compound 46, (Z)-1-(4-amino-2-fluorobut-2-en-1-yl)-3-(3-(N,N-dimethylsulfamoyl)phenyl)-N,2-dimethyl-1H-pyrrolo[3,2-b]pyridine-5-carboxamide] | > 3000 | > 300 | < 300 | > 3000 |
| Cc1c(-c2cccc(S(=O)(=O)N(C)C)c2)c2ccc(C(=O)O)cc2n1C/C(F)=C/CN [Compound 9, (Z)-1-(4-amino-2-fluorobut-2-en-1-yl)-3-(3-(N,N-dimethylsulfamoyl)phenyl)-2-methyl-1H-indole-6-carboxylic acid] | > 3000 | > 300 | < 300 | > 3000 |
